Key:
Hes1 = molecular target: T1, Hes1 (Mus musculus, UniProt P35428); assay: DARTS (pronase protection, anti-HES1 immunoblot); format: biochemical; details: primary mouse keratinocyte lysate; 30 min L-menthol then 20 min pronase, room temperature
T1 construct: endogenous Hes1 in primary mouse keratinocyte lysate, detected by anti-HES1 immunoblot
T1 sequence (P35428 1-282): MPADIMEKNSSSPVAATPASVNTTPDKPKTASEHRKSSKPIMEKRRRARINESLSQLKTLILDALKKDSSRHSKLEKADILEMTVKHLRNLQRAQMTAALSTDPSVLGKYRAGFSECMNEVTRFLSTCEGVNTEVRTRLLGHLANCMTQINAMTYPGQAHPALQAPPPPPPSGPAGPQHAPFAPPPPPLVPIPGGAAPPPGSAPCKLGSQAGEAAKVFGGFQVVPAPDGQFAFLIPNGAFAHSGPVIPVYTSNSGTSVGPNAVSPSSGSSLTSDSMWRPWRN

[1] = molecular target: T2, HES1 (transcription factor hairy and enhancer of split 1) (Homo sapiens, UniProt Q14469); assay: microscale thermophoresis (Monolith NT.[…]); format: binding
T2 construct: Human HES1 in pET-28a(+), C-terminal 6xHis tag kept, E. coli BL21(DE3), nickel and size-exclusion purified
T2 sequence (Q14469 1-280): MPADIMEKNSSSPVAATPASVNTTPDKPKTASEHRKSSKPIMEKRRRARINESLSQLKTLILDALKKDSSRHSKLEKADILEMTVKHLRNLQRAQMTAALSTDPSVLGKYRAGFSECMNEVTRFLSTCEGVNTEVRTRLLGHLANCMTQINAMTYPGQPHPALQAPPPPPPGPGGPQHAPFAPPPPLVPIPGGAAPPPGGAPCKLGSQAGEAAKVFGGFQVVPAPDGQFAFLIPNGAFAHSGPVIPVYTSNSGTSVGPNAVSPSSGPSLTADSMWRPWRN

## CC(C)[C@@H]1CC[C@@H](C)C[C@H]1O [L-menthol]
Hes1
  DARTS (pronase protection, anti-HES1 immunoblot): interaction between HES1 and L-menthol was verified in HaCaT cells
[1]
  Kd: 0.0168 µM

— paper PMC9763329, “Targeting the transcription factor HES1 by L-menthol restores protein phosphatase 6 in keratinocytes in models of psoriasis” (Nature Communications, 2022)
